This note sets out measurements from PMC8248988, “A signal capture and proofreading mechanism for the KDEL-receptor explains selectivity and dynamic range in ER retrieval” (eLife, 2021).

The test system of one series is HeLa S3 cells. In words: ER secretion assay, xDEL ligand secretion (Western blot for mScarlet). The format is cell-based, human. From the text:
Figure 1. ER retrieval signal abundance and affinity are not correlated. (a) Sequence logos for ER resident proteins with C-terminal KDEL retrieval signals and variants thereof calculated using frequency or protein abundance ([Itzhak et al., 2017]; [Itzhak et al., 2016]). (b) Combined cellular concentrations of ER resident proteins with canonical KDEL, RDEL, and HDEL retrieval sequences in HeLa cells and mouse brain. (c) Competition binding assays for [^3H]-TAEHDEL and unlabelled TAEKDEL, TAERDEL, and TAEHDEL to the KDEL receptor. IC50 values for the competing peptides were used to calculate the apparent KDwith the Cheng-Prusoff equation ([Cheng and Prusoff, 1973]). (d) Endogenous KDEL receptor redistribution was measured in COS-7 cells in the absence (-ligand) or presence of K/R/H/A/DDEL (mScarlet-xDEL^sec). TGN46 was used as a Golgi marker. Scale bar is 10 µm. (e) The mean difference for K/R/H/A/DDEL comparisons against the shared no ligand control are shown as Cummings estimation plots. The individual data points for the fraction of KDEL receptor fluorescence in the Golgi are plotted on the upper axes with sample sizes and p values. Figure 1—source data 1. Source data for the ligand-induced KDELR receptor retrieval assays in Figure 1e. Figure 1—figure supplement 1. Abundance of ER resident proteins and chaperones in human cells and mouse brain. (a) The mean concentration of ER resident chaperones with the indicated ER retrieval sequence variant is plotted in the bar graph ([Itzhak et al., 2017]; [Itzhak et al., 2016]). (b) Combined cellular concentrations of ER resident proteins with canonical KDEL, RDEL, and HDEL retrieval sequences in HeLa cells and mouse brain. (c) The mean concentration of KDELR1, KDELR2, and KDELR3 in HeLa cells and mouse brain is plotted in the bar graph ([Itzhak et al., 2017]; [Itzhak et al., 2016]). (d) Cells and media collected from HeLa S3 cells expressing the xDEL variants (mScarlet-xDEL^sec) indicated in the figure were Western blotted for resident ER chaperones and KDELR. (e) A bar graph of xDEL secretion showing mean ± SEM (n = 3). (f). Endogenous ER chaperone secretion was measured by western blotting after challenge with different retrieval signals, and plotted as a bar graph showing mean ± SEM (n = 3). Figure 1—figure supplement 1—source data 1. Source data for analysis of ER protein levels in Figure 1—figure supplement 1a and c. Figure 1—figure supplement 1—source data 2. […] (a) Distribution of human KDELR1 and (b) KDELR2 was measured in COS-7 cells in the absence (-ligand) or presence of K/R/H/A/DDEL retrieval signals (K/R/H/A/DDEL^sec). […] The fraction of KDEL receptor localised to the Golgi was measured before (no ligand) and after challenge with different retrieval signals as indicated. […]
(A western blot detects proteins with antibodies after separation by electrophoresis.)

The subject of series [1] is BIP and PDI, ERP72 and ERP44. In words: ER chaperone secretion assay, all four chaperones. In kind it is cell-based, human. As to conditions: HeLa S3 cells. From the text:
Figure 1. ER retrieval signal abundance and affinity are not correlated. (a) Sequence logos for ER resident proteins with C-terminal KDEL retrieval signals and variants thereof calculated using frequency or protein abundance ([Itzhak et al., 2017]; [Itzhak et al., 2016]). (b) Combined cellular concentrations of ER resident proteins with canonical KDEL, RDEL, and HDEL retrieval sequences in HeLa cells and mouse brain. (c) Competition binding assays for [^3H]-TAEHDEL and unlabelled TAEKDEL, TAERDEL, and TAEHDEL to the KDEL receptor. IC50 values for the competing peptides were used to calculate the apparent KDwith the Cheng-Prusoff equation ([Cheng and Prusoff, 1973]). (d) Endogenous KDEL receptor redistribution was measured in COS-7 cells in the absence (-ligand) or presence of K/R/H/A/DDEL (mScarlet-xDEL^sec). TGN46 was used as a Golgi marker. Scale bar is 10 µm. […] The individual data points for the fraction of KDEL receptor fluorescence in the Golgi are plotted on the upper axes with sample sizes and p values. […] Endogenous ER chaperone secretion was measured by western blotting after challenge with different retrieval signals, and plotted as a bar graph showing mean ± SEM (n = 3). […] (a) Distribution of human KDELR1 and (b) KDELR2 was measured in COS-7 cells in the absence (-ligand) or presence of K/R/H/A/DDEL retrieval signals (K/R/H/A/DDEL^sec). […]

For the substance “ADEL [pcDNA3.1 hGHss-mScarlet-H. sapiens BiP639-654K651A (ADEL^SEC), secreted mScarlet fusion with human BiP C-terminus, ADEL signal]”, in the series on HeLa S3 cells (HeLa S3 cells), the “retention or secretion of the xDEL ligand (in words)” value is recorded as “mostly secreted”. For the same substance, the “xDEL secretion (mScarlet)” value is 51.6 in the series with HeLa S3 cells (mean, HeLa S3, 24 hr, cells and media Western blot densitometry); 33.9 with HeLa S3 cells (replicate 1); 69.2 with HeLa S3 cells (replicate 2). In addition, the “effect on ER retention of BIP, PDI, ERP72 and ERP44 (in words)” value in series [1] is recorded as “little effect on ER retention”.
